Source: ChEMBL document CHEMBL1201862, “PubChem BioAssay data set” (2004)
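Tested at 5 concentrations; 48 h exposure; 96-well plates; endpoints linearly interpolated, else capped at highest concentration. GI50 marks 50% less growth.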 Active and inactive are the calls of the source. Rule as the data show it: active = GI50 up to about 1.1 µM and inactive = higher.

Columns and labels:
Test in all cases: NCI tumour cell line growth inhibition, 48 h
[1] = system: SW-620
[2] = system: DU-145
[3] = system: IGROV-1
[4] = system: SNB-75
[5] = system: SN12C
[6] = system: MCF7
[7] = system: T47D
[8] = system: SK-OV-3
[9] = system: MDA-N
[10] = system: TK-10
[11] = system: NCI-H522
[12] = system: OVCAR-5
[13] = system: EKVX
[14] = system: RXF 393
[15] = system: HCC 2998
[16] = system: KM12
[17] = system: M14
[18] = system: SK-MEL-28
[19] = system: U-251
[20] = system: OVCAR-3

CC(=O)Nc1ccc2[nH]c(C(=O)N3CC(CCl)c4c3cc([N+](=O)[O-])c3ccccc43)cc2c1 (centres undefined)
GI50 [1]: 9.23 µM (inactive) | GI50 [2]: 2.96 µM (inactive) | GI50 [3]: 2.92 µM (inactive) | GI50 [4]: 3.4 µM (inactive) | GI50 [5]: 7.8 µM (inactive) | GI50 [6]: 5.25 µM (inactive) | GI50 [7]: 2.77 µM (inactive) | GI50 [8]: 0.791 µM (active) | GI50 [9]: > 57.4 µM (inactive) | GI50 [10]: 6.32 µM (inactive) | GI50 [11]: 1.14 µM (inactive) | GI50 [12]: 13.1 µM (inactive) | GI50 [13]: 5.09 µM (inactive) | GI50 [14]: 4.74 µM (inactive) | GI50 [15]: 6.4 µM (inactive) | GI50 [16]: 1.73 µM (inactive) | GI50 [17]: 24.2 µM (inactive) | GI50 [18]: > 35.6 µM (inactive) | GI50 [19]: 3.48 µM (inactive) | GI50 [20]: > 100 µM (inactive)

C=CCN(c1cc(OC)c2[nH]c(C(=O)O)c(C)c2c1[N+](=O)[O-])S(C)(=O)=O
GI50 [1]: > 100 µM (inactive) | GI50 [2]: > 100 µM (inactive) | GI50 [3]: > 100 µM (inactive) | GI50 [4]: > 100 µM (inactive) | GI50 [5]: 54.3 µM (inactive) | GI50 [6]: > 100 µM (inactive) | GI50 [7]: > 100 µM (inactive) | GI50 [8]: > 100 µM (inactive) | GI50 [9]: > 100 µM (inactive) | GI50 [10]: > 100 µM (inactive) | GI50 [11]: 10 µM (inactive) | GI50 [12]: > 100 µM (inactive) | GI50 [13]: > 100 µM (inactive) | GI50 [14]: > 100 µM (inactive) | GI50 [15]: > 100 µM (inactive) | GI50 [16]: > 100 µM (inactive) | GI50 [17]: > 100 µM (inactive) | GI50 [18]: > 100 µM (inactive) | GI50 [19]: > 100 µM (inactive) | GI50 [20]: > 100 µM (inactive)

C=CC1(C)OC2(CCN(C(=O)OCC)CC2)OC1C (centres undefined)
GI50 [1]: > 100 µM (inactive) | GI50 [2]: > 100 µM (inactive) | GI50 [3]: > 100 µM (inactive) | GI50 [4]: > 100 µM (inactive) | GI50 [6]: > 100 µM (inactive) | GI50 [7]: > 100 µM (inactive) | GI50 [8]: > 100 µM (inactive) | GI50 [9]: > 100 µM (inactive) | GI50 [10]: > 100 µM (inactive) | GI50 [11]: > 100 µM (inactive) | GI50 [12]: > 100 µM (inactive) | GI50 [13]: > 100 µM (inactive) | GI50 [14]: > 100 µM (inactive) | GI50 [15]: > 100 µM (inactive) | GI50 [16]: > 100 µM (inactive) | GI50 [17]: > 100 µM (inactive) | GI50 [18]: > 100 µM (inactive) | GI50 [19]: > 100 µM (inactive) | GI50 [20]: > 100 µM (inactive)

CC(O)C1(CNc2cc(Cl)nc(N)n2)CCCCC1 (centres undefined)
GI50 [1]: > 100 µM (inactive) | GI50 [2]: > 100 µM (inactive) | GI50 [3]: > 100 µM (inactive) | GI50 [4]: 69.5 µM (inactive) | GI50 [5]: 82.6 µM (inactive) | GI50 [6]: 82.2 µM (inactive) | GI50 [7]: 59 µM (inactive) | GI50 [8]: > 100 µM (inactive) | GI50 [9]: > 100 µM (inactive) | GI50 [10]: > 100 µM (inactive) | GI50 [11]: 55.7 µM (inactive) | GI50 [12]: > 100 µM (inactive) | GI50 [13]: 58.1 µM (inactive) | GI50 [14]: > 100 µM (inactive) | GI50 [16]: 85.3 µM (inactive) | GI50 [17]: > 100 µM (inactive) | GI50 [18]: > 100 µM (inactive) | GI50 [19]: > 100 µM (inactive) | GI50 [20]: > 100 µM (inactive)

N#CC(/N=N/c1ccccc1)c1nc2ccccc2o1 (centres undefined)
GI50 [2]: 26.5 µM (inactive) | GI50 [3]: 16.1 µM (inactive) | GI50 [5]: 83.4 µM (inactive) | GI50 [6]: 59.3 µM (inactive) | GI50 [7]: 8.13 µM (inactive) | GI50 [8]: 23.7 µM (inactive) | GI50 [9]: 95.7 µM (inactive) | GI50 [10]: 24.5 µM (inactive) | GI50 [11]: 27.2 µM (inactive) | GI50 [12]: 56.5 µM (inactive) | GI50 [13]: 20.2 µM (inactive) | GI50 [14]: 22.6 µM (inactive) | GI50 [15]: > 100 µM (inactive) | GI50 [16]: 49.7 µM (inactive) | GI50 [17]: 44.8 µM (inactive) | GI50 [18]: > 100 µM (inactive) | GI50 [19]: 22.4 µM (inactive) | GI50 [20]: 25.4 µM (inactive)

COC(=O)C(Cc1c[nH]c2ccccc12)NP(=O)(O)OCC1OC(n2cc(Br)c(=O)[nH]c2=O)CC1O (centres undefined)
GI50 [1]: > 100 µM (inactive) | GI50 [2]: > 100 µM (inactive) | GI50 [3]: > 100 µM (inactive) | GI50 [4]: > 100 µM (inactive) | GI50 [5]: > 100 µM (inactive) | GI50 [6]: > 100 µM (inactive) | GI50 [7]: > 100 µM (inactive) | GI50 [8]: > 100 µM (inactive) | GI50 [9]: > 100 µM (inactive) | GI50 [10]: > 100 µM (inactive) | GI50 [11]: > 100 µM (inactive) | GI50 [12]: > 100 µM (inactive) | GI50 [13]: > 100 µM (inactive) | GI50 [14]: > 100 µM (inactive) | GI50 [15]: > 100 µM (inactive) | GI50 [16]: > 100 µM (inactive) | GI50 [17]: > 100 µM (inactive) | GI50 [18]: > 100 µM (inactive) | GI50 [19]: > 100 µM (inactive) | GI50 [20]: > 100 µM (inactive)

CN(C)c1nc2nonc2nc1Nc1ccccc1
GI50 [1]: > 100 µM (inactive) | GI50 [2]: > 100 µM (inactive) | GI50 [3]: > 100 µM (inactive) | GI50 [4]: > 100 µM (inactive) | GI50 [5]: > 100 µM (inactive) | GI50 [6]: > 100 µM (inactive) | GI50 [7]: > 100 µM (inactive) | GI50 [8]: > 100 µM (inactive) | GI50 [9]: > 100 µM (inactive) | GI50 [10]: > 100 µM (inactive) | GI50 [11]: > 100 µM (inactive) | GI50 [12]: > 100 µM (inactive) | GI50 [13]: > 100 µM (inactive) | GI50 [14]: > 100 µM (inactive) | GI50 [15]: > 100 µM (inactive) | GI50 [17]: > 100 µM (inactive) | GI50 [18]: > 100 µM (inactive) | GI50 [19]: > 100 µM (inactive)
